From patent US7205295B2, “Benzoxazin-3-ones and derivatives thereof as therapeutic agents” (Warner-Lambert Company LLC, priority 2002, dated 2007)

Target: T1, PI3Kγ (p101/p110γ protein) (Homo sapiens, UniProt P48736)
T1 construct: HA; made in house; host or cells: Spodoptera frugiperda (Sf9) cells, baculovirus co-infection
Assay: PI3Kγ In Vitro Kinase Assay
Format: biochemical
Details: purified recombinant p101/p110γ with G protein β1/γ2 subunits; 20 μM ATP, 25 μM PIP2; 20 minutes at room temperature
Procedure, shortened: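 Reactions ran 20 min at room temperature, pairing lipid micelles (25 μM PIP2, 300 μM PE, 0.02% Na-cholate, 10 mM MgCl2) with 20 μM ATP including [γ-32P]ATP. The enzyme was recombinant p101/p110γ (2.7 nM) with G protein β1/γ2 (57.7 nM). [32P]PIP3 product was stopped with H3PO4, filtered and scintillation counted.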

T1 sequence (P48736 whole entry, species assumed): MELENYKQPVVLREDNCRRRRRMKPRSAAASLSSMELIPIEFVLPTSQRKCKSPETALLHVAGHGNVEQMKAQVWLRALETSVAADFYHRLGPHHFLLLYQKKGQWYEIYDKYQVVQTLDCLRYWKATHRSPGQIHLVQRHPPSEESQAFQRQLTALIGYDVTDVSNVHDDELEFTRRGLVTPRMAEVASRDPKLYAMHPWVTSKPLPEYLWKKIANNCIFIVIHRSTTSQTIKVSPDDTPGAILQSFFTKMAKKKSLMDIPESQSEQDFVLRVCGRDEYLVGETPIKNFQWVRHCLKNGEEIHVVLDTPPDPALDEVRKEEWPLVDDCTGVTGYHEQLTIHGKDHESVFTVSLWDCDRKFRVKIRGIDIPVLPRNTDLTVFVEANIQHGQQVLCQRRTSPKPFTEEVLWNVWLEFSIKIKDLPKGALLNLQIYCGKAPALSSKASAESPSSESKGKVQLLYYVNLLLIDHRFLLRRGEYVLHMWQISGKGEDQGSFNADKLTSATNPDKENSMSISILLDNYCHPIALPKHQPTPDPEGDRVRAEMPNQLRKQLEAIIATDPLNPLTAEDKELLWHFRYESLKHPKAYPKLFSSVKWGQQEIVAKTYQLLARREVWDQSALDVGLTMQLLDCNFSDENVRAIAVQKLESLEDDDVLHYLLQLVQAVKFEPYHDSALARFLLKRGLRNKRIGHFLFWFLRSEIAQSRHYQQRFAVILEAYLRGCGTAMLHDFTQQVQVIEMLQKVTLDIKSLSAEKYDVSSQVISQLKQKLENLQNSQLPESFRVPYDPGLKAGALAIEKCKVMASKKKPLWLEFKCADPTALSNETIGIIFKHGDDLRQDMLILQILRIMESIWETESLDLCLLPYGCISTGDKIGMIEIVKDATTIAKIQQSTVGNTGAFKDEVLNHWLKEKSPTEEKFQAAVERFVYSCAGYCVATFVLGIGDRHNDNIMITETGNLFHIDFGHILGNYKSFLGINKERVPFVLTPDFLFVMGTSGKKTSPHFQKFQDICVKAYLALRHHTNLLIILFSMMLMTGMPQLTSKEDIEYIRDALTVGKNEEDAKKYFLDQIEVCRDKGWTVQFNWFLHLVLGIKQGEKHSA
T1 sequence (Q8WYR1 whole entry partner, species assumed): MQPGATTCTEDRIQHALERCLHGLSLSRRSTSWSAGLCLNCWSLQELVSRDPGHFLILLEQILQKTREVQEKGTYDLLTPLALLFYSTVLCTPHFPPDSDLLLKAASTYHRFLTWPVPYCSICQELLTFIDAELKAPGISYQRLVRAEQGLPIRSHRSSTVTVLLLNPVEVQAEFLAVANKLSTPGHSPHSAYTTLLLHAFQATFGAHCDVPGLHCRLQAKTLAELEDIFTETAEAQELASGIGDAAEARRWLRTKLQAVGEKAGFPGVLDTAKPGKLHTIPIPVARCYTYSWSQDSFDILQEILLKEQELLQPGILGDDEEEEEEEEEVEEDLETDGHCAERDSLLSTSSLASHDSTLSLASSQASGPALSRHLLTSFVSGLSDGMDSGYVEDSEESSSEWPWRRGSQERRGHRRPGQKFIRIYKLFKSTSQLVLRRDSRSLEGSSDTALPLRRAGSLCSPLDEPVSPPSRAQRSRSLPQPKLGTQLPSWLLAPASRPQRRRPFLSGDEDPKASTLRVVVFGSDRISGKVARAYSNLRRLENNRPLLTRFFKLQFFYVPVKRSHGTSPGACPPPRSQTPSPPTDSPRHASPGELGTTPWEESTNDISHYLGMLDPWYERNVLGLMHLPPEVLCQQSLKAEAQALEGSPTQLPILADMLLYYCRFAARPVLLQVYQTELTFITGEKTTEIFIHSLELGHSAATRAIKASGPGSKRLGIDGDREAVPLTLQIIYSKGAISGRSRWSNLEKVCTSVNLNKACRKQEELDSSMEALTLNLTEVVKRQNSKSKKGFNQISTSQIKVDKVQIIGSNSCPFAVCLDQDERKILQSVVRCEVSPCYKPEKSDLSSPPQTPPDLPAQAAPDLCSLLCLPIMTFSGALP

Compound | IC50 [nM]
Cc1cc(CN2CCOCC2)cc(CN2C(=O)COc3ccc(C=C4SC(=S)NC4=O)cc32)c1 [Example 42, 4-(3-Methyl-5-morpholin-4-ylmethyl-benzyl)-6-(4-oxo-2-thioxo-thiazolidin-5-ylidenemethyl)-4H-1,4-benzoxazin-3-one] | 41
CC(C)(C)c1cc(CN2C(=O)COc3ccc(C=C4SC(=S)NC4=O)cc32)cc(C(=O)O)c1 [Example 58, 3-tert-Butyl-5-[3-oxo-6-(4-oxo-2-thioxo-thiazolidin-5-ylidenemethyl)-2,3-dihydro-1,4-benzoxazin-4-ylmethyl]-benzoic acid] | 32
C[C@@H]1Oc2ccc(C=C3SC(=S)NC3=O)cc2N(CCc2ccc(Cl)c(Cl)c2)C1=O [Example 109, (S)-4-[2-(3,4-Dichloro-phenyl)-ethyl]-2-methyl-6-(4-oxo-2-thioxo-thiazolidin-5-ylidenmethyl)-4H-benzo[1,4]oxazin-3-one] | 330
Cc1cc(C=C2SC(=S)NC2=O)cc2c1OCC(=O)N2Cc1cc(C(C)(C)C)cc(C(C)(C)C)c1 [Example 61, 4-(3,5-Di-tert-butyl-benzyl)-8-methyl-6-(4-oxo-2-thioxo-thiazolidin-5-ylidenemethyl)-4H-1,4-benzoxazin-3-one] | 70
CN1CCN(C(=O)c2ccc(CN3C(=O)COc4ccc(/C=C5\SC(=S)NC5=O)cc43)cc2)CC1 [Example 280, 4-[4-(4-Methyl-piperazine-1-carbonyl)-benzyl]-6-[4-oxo-2-thioxo-thiazolidin-(5Z)-ylidenemethyl]-4H-benzo[1,4]oxazin-3-one] | 8
CC(C)c1cc(CN2C(=O)COc3ccc(C=C4SC(=S)NC4=O)cc32)cc(C(C)C)c1 [Example 210, 4-(3,5-Diisopropyl-benzyl)-6-(4-oxo-2-thioxo-thiazolidin-5-ylidenemethyl)-4H-benzo[1,4]oxazin-3-one] | 45
CC(C)(O)c1cc(CN2C(=O)COc3ccc(C=C4SC(=O)NC4=O)cc32)ccc1F [Example 305, 5-{4-[4-Fluoro-3-(1-hydroxy-1-methyl-ethyl)-benzyl]-3-oxo-3,4-dihydro-2H-benzo[1,4]oxazin-6-ylmethylene}-thiazolidine-2,4-dione] | 16
O=C1NC(=O)/C(=C/c2ccc3c(c2)N(Cc2cc(C(F)(F)F)cc(C(F)(F)F)c2)C(=O)CO3)S1 [Example 272, 5-[1-[4-(3,5-Bis-trifluoromethyl-benzyl)-3-oxo-3,4-dihydro-2H-benzo[1,4]oxazin-6-yl]-meth-(Z)-ylidene]-thiazolidine-2,4-dione] | 70
CN1CC(=O)Nc2cc(C=C3SC(=S)NC3=O)ccc21 [Example 190, 4-Methyl-7-(4-oxo-2-thioxo-thiazolidin-5-ylidenemethyl)-3,4-dihydro-1H-quinoxalin-2-one] | 240
O=C1COc2ccc(C=C3NC(=O)NC3=O)cc2N1 [Example 87, 5-(3-Oxo-3,4-dihydro-2H-benzo[1,4]oxazin-6-ylmethylene)-imidazolidine-2,4-dione] | 16100
O=C1NC(=S)SC1=Cc1ccc2c(c1)N(Cc1ccsc1)C(=O)CO2 [Example 146, 6-(4-Oxo-2-thioxo-thiazolidin-5-ylidenemethyl)-4-thiophen-3-ylmethyl-4H-benzo[1,4]oxazin-3-one] | 30
Cc1cc(CN2C(=O)COc3ccc(C=C4SC(=S)NC4=O)cc32)c(C)o1 [Example 317, 4-(2,5-Dimethyl-furan-3-ylmethyl)-6-(4-oxo-2-thioxo-thiazolidin-5-ylidenemethyl)-4H-benzo[1,4]oxazin-3-one] | 21
Cc1cc(C)cc(CN2C(=O)COc3c(Cl)cc(C=C4SC(=O)NC4=O)cc32)c1 [Example 68, 5-[8-Chloro-4-(3,5-dimethyl-benzyl)-3-oxo-3,4-dihydro-2H-1,4-benzoxazin-6-ylmethylene]-thiazolidine-2,4-dione] | 555
Cc1cncc(CN2C(=O)COc3ccc(C=C4SC(=S)NC4=O)cc32)c1 [Example 334, 4-(5-Methyl-pyridin-3-ylmethyl)-6-(4-oxo-2-thioxo-thiazolidin-5-ylidenemethyl)-4H-1,4-benzoxazin-3-one] | 25
O=C1NC(=S)SC1=Cc1ccc2c(c1)N(Cc1ccoc1)C(=O)CO2 [Example 340, 4-Furan-3-ylmethyl-6-(4-oxo-2-thioxo-thiazolidin-5-ylidenemethyl)-4H-1,4-benzoxazin-3-one] | 13
O=C1NC(=S)SC1=Cc1cc(F)c2c(c1)N(Cc1ccc3ncccc3c1)C(=O)CO2 [Example 328, 8-Fluoro-6-(4-oxo-2-thioxo-thiazolidin-5-ylidenemethyl)-4-quinolin-6-ylmethyl-4H-1,4-benzoxazin-3-one] | 6
Cc1cc(CN2C(=O)COc3ccc(C=C4SC(=S)NC4=O)cc32)nn1C(C)(C)C [Example 326, 4-(1-tert-Butyl-5-methyl-1H-pyrazol-3-ylmethyl)-6-(4-oxo-2-hioxo-thiazolidin-5-ylidenemethyl)-4H-benzo[1,4]oxazin-3-one] | 25
Cc1cc(C)nc(CN2C(=O)COc3ccc(C=C4SC(=S)NC4=O)cc32)n1 [Example 232, 4-(4,6-Dimethyl-pyrimidine-2-ylmethyl)-6-(4-oxo-2-thioxo-thiazolidin-5-ylidenemethyl)-4H-benzo[1,4]oxazin-3-one] | 125

Compound | IC50 [nM]
O=C1COc2ccc(C=C3NC(=S)NC3=O)cc2N1 [Example 200, 6-(5-Oxo-2-thioxo-imidazolidin-4-ylidenemethyl)-4H-benzo[1,4]oxazin-3-one] | 3640
CN1CCN(Cc2ccc(CN3C(=O)COc4ccc(C=C5SC(=O)NC5=O)cc43)cc2)CC1 [Example 228, 5-{4-[4-(4-Methyl-piperazin-1-ylmethyl)-benzyl]-3-oxo-3,4-dihydro-2H-1,4-benzoxazin-6-ylmethylene}-thiazolidine-2,4-dione] | 3
O=C1NC(=S)O/C1=C\c1ccc2c(c1)N(Cc1cc(C(F)(F)F)cc(C(F)(F)F)c1)C(=O)CO2 [Example 271, 4-(3,5-Bis-trifluoromethyl-benzyl)-6-[4-oxo-2-thioxo-oxazolidin-(5Z)-ylidenemethyl]-4H-benzo[1,4]oxazin-3-one] | 101
O=C1NC(=S)SC1=Cc1cc(F)c2c(c1)N(CCc1ccc(Cl)c(Cl)c1)C(=O)CO2 [Example 111, 4-[2-(3,4-dichloro-phenyl)-ethyl]-8-fluoro-6-(4-oxo-2-thioxo-thiazolidin-5-ylidenmethyl)-4H-benzo[1,4]oxazin-3-one] | 14
COCCN(CCCN1C(=O)COc2c(F)cc(C=C3SC(=S)NC3=O)cc21)CCOC [Example 313] | 35
O=C1NC(=S)SC1=Cc1ccc2c(c1)N(CCCOc1ccccc1)C(=O)CO2 [Example 161, 6-(4-Oxo-2-thioxo-thiazolidin-5-ylidenemethyl)-4-(3-phenoxy-propyl)-4H-1,4-benzoxazin-3-one] | 4
O=C1NC(=S)SC1=Cc1ccc2c(c1)N(Cc1ccncc1)C(=O)CO2 [Example 148, 6-(4-Oxo-2-thioxo-thiazolidin-5-ylidenemethyl)-4-pyridin-4-ylmethyl-4H-benzo[1,4]oxazin-3-one] | 61
Cc1cc(CN2C(=O)COc3ccc(C=C4SC(=S)NC4=O)cc32)cc(-c2c(C)noc2C)c1 [Example 117, 4-[3-(3,5-Dimethyl-isoxazol-4-yl)-5-methyl-benzyl]-6-(4-oxo-2-thioxo-thiazolidin-5-ylidenemethyl)-4H-benzo[1,4]oxazin-3-one] | 40
O=C1NC(=S)SC1=Cc1ccc2c(c1)N(Cc1cc(Br)cc(I)c1)C(=O)CO2 [Example 41, 4-(3-Bromo-5-iodo-benzyl)-6-(4-oxo-2-thioxo-thiazolidin-5-ylidenemethyl)-4H-1,4-benzoxazin-3-one] | 61
Cc1cc(CN2C(=O)COc3ccc(C=C4SC(=S)NC4=O)cc32)cc(-c2cnccn2)c1 [Example 121, 4-(3-Methyl-5-pyrazin-2-yl-benzyl)-6-(4-oxo-2-thioxo-thiazolidin-5-ylidenemethyl)-4H-benzo[1,4]oxazin-3-one] | 67
CC(C)(C)c1cc(CN2C(=O)COc3ccc(C=C4SC(=S)NC4=O)cc32)cc(C(C)(C)C)c1 [Example 32, 4-(3,5-Di-tert-butyl-benzyl)-6-(4-oxo-2-thioxo-thiazolidin-5-ylidenemethyl)-4H-1,4-benzoxazin-3-one] | 12
O=C1COc2ccc(C=C3SC(=S)N(c4ccccc4)C3=O)cc2N1Cc1ccc(Cl)s1 [Example 316, 4-(5-Chloro-thiophen-2-ylmethyl)6-(4-oxo-3-phenyl-2-thioxo-thiazolidin-5-ylidenemethyl)-4H-benzo[1,4]oxazin-3-one] | 3700
CC(C)(C)c1cc(CO)cc(CN2C(=O)COc3ccc(C=C4SC(=S)NC4=O)cc32)c1 [Example 212, 4-(3-tert-Butyl-5-hydroxymethyl-benzyl)-6-(4-oxo-2-thioxo-thiazolidin-5-ylidenemethyl)-4H-1,4-benzoxazin-3-one] | 22
4-Methyl-6-(4-oxo-2-thioxo-oxazolidin-5-ylidenemethyl)-4a,8a-dihydro-4H-benzo[1,4]oxazin-3-one, Potassium Salt [Example 204] | 16
5-{4-[3-(4-Methoxy-phenyl)-propyl]-3-oxo-3,4-dihydro-2H-benzo[1,4]oxazin-6-ylmethylene}-thiazolidine-2,4-dione [Example 125] | 18
O=C1NC(=S)SC1=Cc1ccc2c(c1)N(CCCc1cccc(Cl)c1Cl)C(=O)CO2 [Example 127, 4-[3-(2,3-Dichloro-phenyl)-propyl]-6-(4-oxo-2-thioxo-thiazolidin-5-ylidenemethyl)-4H-benzo[1,4]oxazin-3-one] | 43
O=C1NC(=S)SC1=Cc1cc(F)c2c(c1)N(CCOc1ccc(F)cc1)C(=O)CO2 [Example 310, 8-Fluoro-4-[2-(4-fluoro-phenoxy)-ethyl]-6-(4-oxo-2-thioxo-thiazolidin-5-ylidenemethyl)-4H-benzo[1,4]oxazin-3-one] | 9
